{"source": "patent US20170121295A1", "about": "“POLYCYCLIC LPA1 ANTAGONIST AND USES THEREOF” (AMIRA PHARMACEUTICALS, INC., priority 2010, published 2017)", "key": {"[1]": {"assay": "Pharmacokinetics in Sprague-Dawley Rats", "format": "in vivo", "conditions": "for half-life: Sprague-Dawley, rat, plasma; for dose normalized exposure: oral, 10 mg/kg", "method": "The pharmacokinetics of Compound 1 and Compound 2 was assessed in male and female Sprague-Dawley rats (225-300 g at 10 weeks).\nCompound 2 (1 mg/kg) was administered intravenously (IV) to fasted rats (n=3) as a solution in purified water via a bolus injection into the jugular vein (1 mg/mL; 1 mL/kg). Compound 1 (10 mg/kg) was administered orally (PO), to fasted (for at least 12 hours) or non-fasted rats (n=2 or 3) as a solution in 0.5% methylcellulose unless otherwise noted via an oral gavage to the stomach (3.33 mg/mL; 3 mL/kg). Non-fasted animals were fasted for at least 12 hours and then were given food ad libitum for 1 hour prior to dosing. Fasted animals were dosed 1, 10, 30, 100 or 300 mg/kg Compound 1 as a solution in 0.5% methylcellulose via an oral gavage to the stomach (0.69 mg/mL, 10 mg/mL, 33.3 mg/mL or 100 mg/mL) (n=2 or 3 per dose group). In a gastrointestinal study, rats were anesthetized and Compound 1 was administered directly to the duodenum, jcjunum or ilcum at 1 mg/kg in 0.5% methylcellulose.\nCapsules were also administered with Compound 2. Capsules were size 9 gelatin (Torpac, San Diego, Calif.).\n(§1) Blood samples (approximately 300 μL total blood) were taken from each rat via the jugular vein cannula at pre-dose, and an initial time of 5 or 15 min and then various time points up to 24 hours post-dose (10-11 samples per animal). Samples were collected on wet ice in tubes containing potassium EDTA. After each blood draw, the cannula was flushed with an equivalent volume of heparinized saline (0.1 mL at 40 units/mL). Plasma samples, prepared by centrifugation of whole blood, were stored frozen (−80° C.) prior to analysis."}, "[2]": {"assay": "Thermodynamic aqueous solubility", "format": "physicochemical", "conditions": "water, 25 °C, thermodynamic from solid, equilibrated at 25° C. for 24 hours, read-out: Solubility (mg/ml, free form equivalent)", "method": "Aqueous solubility was determined by suspending sufficient compound in water to give a maximum final concentration of ≧10 mg·ml−1 of the parent free-form of the compound. The suspension was equilibrated at 25° C. for 24 hours then the pH was measured. The suspension was then filtered through a glass fiber C filter into a 96 well plate unless stated otherwise. The filtrate was then diluted by a factor of 101. Quantification was by HPLC with reference to a standard solution of approximately 0.25 mg·ml^−1 in DMSO. Different volumes of the standard, diluted and undiluted sample solutions were injected. The solubility was calculated using the peak areas determined by integration of the peak found at the same retention time as the principal peak in the standard injection.\nAnalysis was performed on an Agilent HP1100 series system equipped with a diode array detector and using ChemStation software vB.02.01-SR1."}, "[3]": {"assay": "Pharmacokinetics in Male Beagle Dogs", "format": "in vivo", "conditions": "for bioavailability: po, 5 mg/kg, read-out: apparent oral bioavailability", "method": "The pharmacokinetics of Compound 1 and Compound 2 was assessed in male Beagle dogs.\nDosing of male Beagle dogs (n=3) was performed. Compound 1 or Compound 2 was dosed intravenously at 2 mg/kg (fasted) and orally (fasted or non-fasted) at 5 mg/kg. In fasted animals, food was withheld a minimum of 12 hours prior to dosing and then returned 4 hours post-dose. Non-fasted animals were allowed to feed 1 hour prior to dosing ad libitum. Compound 2 capsules were given by oral gavage in the fasted state. Plasma samples were collected by Perry Scientific study personnel.\nThe capsules are noted in Table 25 below. Capsules were size 0 gelatin (Capsugel, Peapack, N.J.). Tablet formulations are noted in Example 24.\nFor the clinical drug product oral solution of active agent (1.67 mg/mL), sucralose (0.5% w/w) and cherry flavor (0.5% w/w) is added to the formulation as a sweetener and taste masking agent, respectively to a 0.5% methocel aqueous solution.\nas §1, with “1 mL” for “300 μL”, “dog” for “rat via the jugular vein cannula”"}, "[4]": {"test_system": "highly peritoneal metastatic pancreatic cancer cell line", "conditions": "LPA-induced and ascites-induced; cited from earlier work"}, "[5]": {"test_system": "renal fibrosis", "conditions": "compared with LPA1 (−/−) mice; cited from earlier work"}, "[6]": {"test_system": "pancreatic cancer cell lines", "conditions": "in response to LPA and peritoneal fluid (ascites) from pancreatic cancer patients; cited from earlier work"}, "[7]": {"molecular_target": "T1, Human LPA1 (Homo sapiens, UniProt Q92633)", "T1 construct": "the full-length cDNA for human LPA1 was obtained by PCR of the reverse transcription reaction; expressed in transfected cells", "T1 sequence (Q92633 whole entry)": "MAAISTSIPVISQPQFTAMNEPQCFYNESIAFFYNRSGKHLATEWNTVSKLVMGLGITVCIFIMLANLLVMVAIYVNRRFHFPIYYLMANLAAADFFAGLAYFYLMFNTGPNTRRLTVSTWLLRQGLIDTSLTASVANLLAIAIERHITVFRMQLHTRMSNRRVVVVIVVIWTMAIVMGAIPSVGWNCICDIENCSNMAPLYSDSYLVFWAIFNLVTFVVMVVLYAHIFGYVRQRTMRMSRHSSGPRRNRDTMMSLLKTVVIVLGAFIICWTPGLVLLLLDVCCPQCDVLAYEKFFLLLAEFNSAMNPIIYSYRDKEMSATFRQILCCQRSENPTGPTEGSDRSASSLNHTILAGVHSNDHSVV", "assay": "LPA1 Calcium Flux Assay", "format": "cell-based", "conditions": "human LPA1 expressing CHO cells, 10 nM LPA; read-out: Ca Flux IC50 LPA1", "method": "A 1.1 kb cDNA encoding the human LPA1 receptor was cloned from human lung. Human lung RNA (Clontech Laboratories, Inc. USA) was reverse transcribed using the RETROscript kit (Ambion, Inc.) and the full-length cDNA for human LPA1 was obtained by PCR of the reverse transcription reaction. The nucleotide sequence of the cloned human LPA1 was determined by sequencing and confirmed to be identical to the published human LPA1 sequence (An et al. Biochem. Biophys. Res. Commun. 231:619 (1997). The cDNA was cloned into the pCDNA5/FRT expression plasmid and transfected in CHO cells using lipofectamine 2000 (Invitrogen Corp., USA). Clones stably expressing human LPA1 were selected using hygromycin and identified as cells that show Ca-influx in response to LPA.\n(§2) Human LPA1 or LPA3 expressing CHO cells are seeded at 20,000-45,000 cells per well in a 96-well poly-D-lysine coated plate one or two days before the assay. Prior to the assay, the cells are washed once with PBS and then cultured in serum-free media overnight. On the day of the assay, a calcium indicator dye (Calcium 4, Molecular Devices) in assay buffer (HBSS with Ca^2+ and Mg^2+ and containing 20 mM Hepes and 0.3% fatty-acid free human serum albumin) is added to each well and incubation continued for 1 hour at 37° C. 10 μl of test compound in 2.5% DMSO are added to the cells and incubation continued at room temperature for 30 minutes. Cells are the stimulated by the addition of 10 nM LPA and intracellular Ca^2+ measured using the Flexstation 3 (Molecular Devices). IC50s are determined using Graphpad prism analysis of drug titration curves."}, "[8]": {"molecular_target": "T2, Human LPA3 (Homo sapiens, UniProt Q9UBY5)", "T2 construct": "The full-length cDNA fragment for human LPA3 was obtained by PCR from the vector", "T2 sequence (Q9UBY5 1-353)": "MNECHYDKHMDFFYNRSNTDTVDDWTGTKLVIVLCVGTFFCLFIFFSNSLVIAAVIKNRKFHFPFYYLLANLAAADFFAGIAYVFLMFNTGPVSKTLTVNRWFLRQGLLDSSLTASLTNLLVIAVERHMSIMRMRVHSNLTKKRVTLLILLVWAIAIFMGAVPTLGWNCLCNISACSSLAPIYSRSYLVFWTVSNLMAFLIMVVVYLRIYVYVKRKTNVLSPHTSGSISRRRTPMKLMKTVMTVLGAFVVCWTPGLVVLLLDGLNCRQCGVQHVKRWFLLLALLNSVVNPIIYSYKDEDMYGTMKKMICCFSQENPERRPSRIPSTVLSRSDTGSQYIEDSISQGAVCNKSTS", "assay": "LPA3 Calcium Flux Assay", "format": "cell-based", "conditions": "human LPA3 expressing CHO cells, 10 nM LPA; read-out: Ca Flux IC50 LPA3", "method": "A vector containing the human LPA3 receptor cDNA was obtained from the Missouri S&T cDNA Resource Center (www.cdna.org). The full-length cDNA fragment for human LPA3 was obtained by PCR from the vector. The nucleotide sequence of the cloned human LPA3 was determined by sequencing and confirmed to be identical to the published human LPA3 sequence (NCBI accession number NM_012152). The cDNA was cloned into the pCDNA5/FRT expression plasmid and transfected in CHO cells using lipofectamine 2000 (Invitrogen Corp., USA). Clones stably expressing human LPA3 were selected using hygromycin and identified as cells that show Ca-influx in response to LPA.\nas §2"}, "[9]": {"conditions": "male, Beagle, dog, plasma, oral 5 mg/kg, fasted state"}}, "note": "Where two headings read alike, the source gives them in different places."}
{"smiles": "Cc1noc(-c2ccc(-c3ccc(C4(C(=O)[O-])CC4)cc3)cc2)c1NC(=O)O[C@H](C)c1ccccc1.[Na+]", "note": "[Compound 2, 1-{4′-[3-methyl-4-((R)-1-phenyl-ethoxycarbonylamino)-isoxazol-5-yl]-biphenyl-4-yl}-cyclopropanecarboxylic acid, sodium salt]", "values": [{"measurement": "volume of distribution", "setting": "[1]; IV 1 mg/kg", "value": "approximately two-fold total body water"}, {"measurement": "half-life", "setting": "[1]; female, IV 1 mg/kg, females", "value": 3.2, "unit": "h"}, {"measurement": "half-life", "setting": "[1]; male, IV 1 mg/kg, males", "value": 3.8, "unit": "h"}, {"measurement": "dose normalized exposure", "setting": "[1]", "value": 2.4, "unit": "µg·h/mL"}, {"measurement": "dose normalized exposure", "setting": "[1]; in a gelatin capsule", "value": 2.1, "unit": "µg·h/mL"}, {"measurement": "solubility at 24 h", "setting": "[2]", "value": "≥ 10", "unit": "mg/mL"}, {"measurement": "effect of food on absorption", "setting": "[3]; dog, fasted vs fed", "value": "food has little effect on the absorption"}, {"measurement": "decrease of AUC", "setting": "[3]; dosed as a capsule form, fasted", "value": 2.5, "unit": "fold"}, {"measurement": "bioavailability", "setting": "[3]; male, Beagle, dog, plasma, dosed as a capsule form, fasted", "value": 24, "unit": "%"}, {"measurement": "bioavailability", "setting": "[3]; male, Beagle, dog, plasma, human dose solution", "value": 57, "unit": "%"}, {"measurement": "bioavailability", "setting": "[3]; [9]", "value": 63, "unit": "%"}, {"measurement": "bioavailability", "setting": "[3]; male, Beagle, dog, plasma, oral 5 mg/kg, fed state", "value": 60, "unit": "%"}, {"measurement": "bioavailability", "setting": "[3]; male, Beagle, dog, plasma, tablet formulation (first of two)", "value": 100, "unit": "%"}, {"measurement": "bioavailability", "setting": "[3]; male, Beagle, dog, plasma, tablet formulation (second of two)", "value": 52, "unit": "%"}, {"measurement": "Vd", "setting": "[3]; male, Beagle, dog, plasma, IV 2 mg/kg, read-out: estimated volume of distribution", "value": 0.6, "unit": "L/kg"}, {"measurement": "clearance", "setting": "[3]; male, Beagle, dog, plasma, IV 2 mg/kg, read-out: systemic clearance", "value": 10.5, "unit": "mL/min/kg"}, {"measurement": "half-life", "setting": "[3]; male, Beagle, dog, plasma, IV 2 mg/kg, read-out: terminal half-life (converted)", "value": 3.9, "unit": "h"}, {"measurement": "Cmax", "setting": "[3]; [9]", "value": 5500, "unit": "ng/mL"}]}
{"smiles": "Cc1noc(-c2ccc(CSCCC(=O)O)cc2)c1NC(=O)OC(C)c1ccccc1Cl", "note": "(stereo not shown) [Ki16425]", "values": [{"measurement": "invasion activity", "setting": "[4]", "value": "blocked"}, {"measurement": "development of renal fibrosis in UUO mice", "setting": "[5]", "value": "closely resembled the LPA1 (−/−) mice"}, {"measurement": "in vitro migration", "setting": "[6]", "value": "effectively blocked"}]}
{"smiles": "Cc1noc(-c2ccc(-c3ccc(C4(C(=O)O)CC4)cc3)cc2)c1NC(=O)OC(C)c1ccccc1", "note": "(racemic) [Racemic Compound 1]", "values": [{"measurement": "IC50", "setting": "[7]", "value": "< 200", "unit": "nM"}, {"measurement": "IC50", "setting": "[8]", "value": "> 1000", "unit": "nM"}]}
{"smiles": "Cc1noc(-c2ccc(-c3ccc(C4(C(=O)O)CC4)cc3)cc2)c1NC(=O)O[C@@H](C)c1ccccc1", "note": "[S-enantiomer of Compound 1]", "values": [{"measurement": "IC50", "setting": "[7]", "value": "< 200", "unit": "nM"}, {"measurement": "IC50", "setting": "[8]", "value": "> 1000", "unit": "nM"}]}
